Like-named read-outs stand apart in the source and are kept apart here.
Key:
MV-4-11 = test: Proliferation assay A (spheroid assay) MV-4-11; type: cell-based, human; conditions: MV-4-11 cells, 8 d, AUC of confluence against time, absolute IC50, read-out: (3a) Spheroid assay MV-4-11 (IC50(μM)) Assay A
Procedure, shortened: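 Spheroid growth in ultra-low-attachment round-bottom wells (1,500 MV-4-11, 300 MOLM14 or 750 K562 cells), compound titration at 0.3% DMSO, 8 d at 37° C. Confluence imaged every 4 h; AUC from t=0 baseline expressed as % of DMSO control and fitted for absolute IC50.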

menin = molecular target: T1, menin (Homo sapiens, UniProt O00255, T541A); test: Menin/MLL homogenous time-resolved fluorescence (HTRF) assay; type: binding
T1 construct: Menin (a.a. 1-610-6×his tag)
T1 sequence (O00255 with tags, fused parts or gaps T541A): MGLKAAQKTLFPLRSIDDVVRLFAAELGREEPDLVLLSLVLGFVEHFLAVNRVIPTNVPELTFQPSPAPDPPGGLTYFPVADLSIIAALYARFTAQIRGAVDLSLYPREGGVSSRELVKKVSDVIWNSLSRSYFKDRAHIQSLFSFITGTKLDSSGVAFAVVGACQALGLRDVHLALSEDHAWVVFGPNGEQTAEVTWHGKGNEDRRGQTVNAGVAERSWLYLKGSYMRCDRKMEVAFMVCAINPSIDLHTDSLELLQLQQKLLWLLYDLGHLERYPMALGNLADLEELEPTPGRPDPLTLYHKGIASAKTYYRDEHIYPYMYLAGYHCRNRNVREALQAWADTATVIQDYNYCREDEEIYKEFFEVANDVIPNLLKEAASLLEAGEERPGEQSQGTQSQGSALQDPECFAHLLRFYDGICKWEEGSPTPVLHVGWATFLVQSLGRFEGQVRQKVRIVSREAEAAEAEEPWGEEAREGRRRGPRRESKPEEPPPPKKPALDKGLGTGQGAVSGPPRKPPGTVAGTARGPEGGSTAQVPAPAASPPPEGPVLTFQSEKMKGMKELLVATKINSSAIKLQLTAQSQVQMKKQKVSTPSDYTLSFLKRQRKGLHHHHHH
Procedure, shortened: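 Displacement of 75 nM FITC-MBM1 from terbium-cryptate-labeled His-tagged menin 1-610 ([…]) was read as the 520/490 nm HTRF ratio. Compound (11-point, 3-fold series) got 5 min with menin before peptide, then 15 min at ambient; 0.5% DMSO, Tris pH 7.5.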

MOLM14 [1] = test: Proliferation assay A (spheroid assay) MOLM14; type: cell-based, human; conditions: MOLM14 cells, 8 d, AUC of confluence against time, absolute IC50, read-out: (3a) Spheroid assay MOLM14 (IC50(μM)) Assay A
Description: 3a) Proliferation Assay A
The anti-proliferative effect of menin/MLL protein/protein interaction inhibitor test compounds was assessed in human leukemia cell lines. The cell lines MV-4-11 and MOLM14 harbor MILL translocations and express the MILL fusion proteins MLL-AF4 and MLL-AF9, respectively, as well as the wildtype protein from the second allele. […] K562 was used as a control cell line containing two MLL wildtype alleles in order to exclude compounds that display general cytotoxic effects.
MV-4-11 and MOLM14 were cultured in RPMI-1640 (Sigma Aldrich) supplemented with 10% fetal bovine serum (HyClone), 2 mM L-glutamine (Sigma Aldrich) and 50 μg/ml gentamycin (Gibco). K562 were propagated in RPMI-1640 (Sigma Aldrich) supplemented with 20% fetal bovine serum (HyClone), 2 mM L-glutamine (Sigma Aldrich) and 50 μg/ml gentamycin (Gibco).
In order to assess the anti-proliferative effects, 1,500 MV-4-11, 300 MOLM14 or 750 K562 cells were seeded in 200 μl media per well in 96-well round bottom, ultra-low attachment plates (Costar, catalogue number 7007). Cell seeding numbers were chosen based on growth curves to ensure linear growth throughout the experiment. Test compounds were added at different concentrations and the DMSO content was normalized to 0.3%. Cells were incubated for 8 d at 37° C. and 5% CO2. Spheroid like growth was monitored in real-time by live-cell imaging (IncuCyteZOOM, Essenbio, 4× objective) acquiring one image every four hours for 8 d. Confluence (%) as a measure of spheroid size was determined using an integrated analysis tool.
In order to determine the cumulative effect of the test compounds over time, the area under the curve (AUC) in a plot of confluence against time was calculated. Confluence at the beginning of the experiment (t=0) was used as baseline for the AUC calculation.
Absolute IC50 values were calculated according to the following procedure: % Control=(AUC sample/AUC control)*100
AUC control mean AUC of control values (cells without compound/DMSO as vehicle control)
A non-linear curve fit was applied using the least squares (ordinary) fit method to the plot of % control versus compound concentration. Based on this, the absolute IC50 value (half maximal inhibitory concentration of the test compound causing an anti-proliferative effect of 50% relative to the vehicle control) was calculated.

MOLM14 [2] = test: Proliferation assay B (spheroid assay) MOLM14; type: cell-based, human; conditions: Homo sapiens, MOLM-14, 192 h, MOLM14 cells, confluence at day 8, absolute IC50; read-out: (3b) Spheroid assay MOLM14 (IC50(μM)) Assay B
Procedure, shortened: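 IC50 derived from % effect on day-8 imaged confluence, scaled between DMSO-treated cells (high) and 1 μM staurosporine (low), using a variable-slope fit constrained 0-100%. Cells seeded as spheroids in ultra-low-attachment plates and exposed to compound for 8 days, 0.3% DMSO.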

[3] = location 1, read-out: (2) location 1 Menin HTRF assay (IC50 (nM))
[4] = location 2, read-out: (2) location 2 Menin HTRF assay (IC50 (nM))

Row | Structure (SMILES) | IC50 (MV-4-11; Homo sapiens, MV4-11, 192 h) | IC50 (menin; [3]) | IC50 (menin; [4]) | IC50 (MOLM14 [1]; Homo sapiens, MOLM-14, 192 h) | IC50 (MV-4-11) | IC50 (MOLM14 [1]) | IC50 (MOLM14 [2])
1 | FC(F)(F)Cc1cc2c(N3CC[C@@]4(CC[C@@H](NCc5ccccc5)C4)C3)ncnc2s1 (single isomer, unassigned) [Compound 3] | 0.75 µM | 75.7 nM | 10 nM | 2.39 µM | – | – | –
2 | FC(F)(F)Cc1cc2c(N3CCC4(CCC(Nc5ccccc5)C4)C3)ncnc2s1 (single isomer, unassigned) [Compound 33] | 5.11 µM | – | 2050 nM | 4.45 µM | – | – | –
3 | O=c1[nH]c2ccc(CNC3CCC4(C3)CN(c3ncnc5sc(CC(F)(F)F)cc35)C4)cc2o1 (single isomer, unassigned) [Compound 55] | 0.28 µM | – | 7 nM | 1.27 µM | – | – | –
4 | O=c1[nH]c2cc(CNC3CCC4(C3)CN(c3ncnc5sc(CC(F)(F)F)cc35)C4)ccc2o1 (single isomer, unassigned) [Compound 57] | – | – | 3.6 nM | – | 0.09 µM | 0.44 µM | –
5 | COc1nc(N2CCC3(CC(NCc4ccccc4)C3)C2)c2cc(CC(F)(F)F)sc2n1 (single isomer, unassigned) [Compound 60] | 3.2 µM | – | 23.2 nM | 3.46 µM | – | – | –
6 | CNC(=O)c1ccc(NC2CCC3(C2)CN(c2ncnc4sc(CC(F)(F)F)cc24)C3)cc1 (single isomer, unassigned) [Compound 98] | 0.25 µM | – | 2.6 nM | 1.3 µM | – | – | 1.36 µM
7 | O=c1[nH]c2ccc(CNC3CCC4(C3)CN(c3ncnc5sc(CC(F)(F)F)cc35)C4)cc2[nH]1 (single isomer, unassigned) [Compound 108] | – | – | 5.2 nM | > 3.75 µM | 0.53 µM | – | –
8 | FC(F)(F)Cc1cc2c(N3CCC4(CC(Nc5ccccc5)C4)C3)ncnc2s1 (single isomer, unassigned) [Compound 149] | 3.67 µM | – | 37.5 nM | > 3.75 µM | – | – | –
9 | N#CC1(c2ccc(NC3CC4(CCN(c5ncnc6sc(CC(F)(F)F)cc56)C4)C3)cc2)CC1 (single isomer, unassigned) [Compound 172] | 0.9 µM | – | 8.4 nM | 3.05 µM | – | – | –
10 | CC(C)(N[C@H]1CCC2(C1)CN(c1ncnc3sc(CC(F)(F)F)cc13)C2)c1ccccc1 (single isomer, unassigned) [Compound 281] | 1.11 µM | – | 62.7 nM | 1.78 µM | – | – | –
11 | N#CCc1ccc(NC2CC3(CCN(c4ncnc5sc(CC(F)(F)F)cc45)C3)C2)cc1 (single isomer, unassigned) [Compound 306] | – | – | 78.2 nM | 3.82 µM | 2.25 µM | – | –
12 | Nc1nc(N2CCC3(CC(Nc4ccc5[nH]c(=O)oc5c4)C3)C2)c2cc(CC(F)(F)F)sc2n1 (single isomer, unassigned) [Compound 386] | > 3.75 µM | – | 86.8 nM | 1.99 µM | – | – | –
13 | FC(F)(F)Cc1cc2c(N3CCC4(CCC(NCc5ccccc5)CC4)C3)ncnc2s1 (stereo not shown) [Compound 1] | 0.17 µM | 3.7 nM | 5 nM | 0.79 µM | – | – | –
14 | O=c1[nH]c2ccc(CNC3CCC4(C3)CN(c3ncnc5sc(CC(F)(F)F)cc35)C4)cc2[nH]1 (stereo not shown) [Compound 14] | 0.39 µM | 5.9 nM | 0.8 nM | 2.3 µM | – | – | –
15 | O=c1[nH]c2ccc(CNC3CCC4(C3)CN(c3ncnc5sc(CC(F)(F)F)cc35)C4)cc2o1 (stereo not shown) [Compound 15] | 0.25 µM | – | 2.2 nM | 1.29 µM | – | – | –
16 | O=c1[nH]c2cc(CNC3CCC4(C3)CN(c3ncnc5sc(CC(F)(F)F)cc35)C4)ccc2o1 (stereo not shown) [Compound 16] | 0.03 µM | – | 2 nM | 0.19 µM | – | – | –
17 | FC(F)(F)Cc1cc2c(N3CC4(CCC(NCc5cccc(-c6cc[nH]n6)c5)C4)C3)ncnc2s1 (stereo not shown) [Compound 17] | 1.36 µM | – | 7.2 nM | 3.51 µM | – | – | –
18 | CC(C)N(C)CC1CC2(CCN(c3ncnc4sc(CC(F)(F)F)cc34)C2)C1 (stereo not shown) [Compound 40] | 3.13 µM | – | 90.9 nM | 2.64 µM | – | – | –
19 | CC(NC1CCC2(C1)CN(c1ncnc3sc(CC(F)(F)F)cc13)C2)c1ccccc1 (stereo not shown) [Compound 42] | 1.24 µM | – | 43.8 nM | 0.69 µM | – | – | –
20 | N#CCc1ccc(NC2CC3(CCN(c4ncnc5sc(CC(F)(F)F)cc45)C3)C2)cc1 (stereo not shown) [Compound 44] | 2.08 µM | – | 11.3 nM | 2.61 µM | – | – | –
21 | CC(C)NC1CC2(CCN(c3ncnc4sc(CC(F)(F)F)cc34)C2)C1 (stereo not shown) [Compound 51] | 0.81 µM | 61.3 nM | – | 2.46 µM | – | – | –
22 | COc1nc(N2CCC3(CC(NCc4ccccc4)C3)C2)c2cc(CC(F)(F)F)sc2n1 (stereo not shown) [Compound 59] | 0.28 µM | – | 4.5 nM | 0.85 µM | – | – | –
23 | CNc1nc(N2CCC3(CC(NCc4ccccc4)C3)C2)c2cc(CC(F)(F)F)sc2n1 (stereo not shown) [Compound 61] | 0.1 µM | – | 2.4 nM | 0.29 µM | – | – | –
24 | N#CCc1ccc(NC2CC3(CCN(c4ncnc5sc(CC(F)(F)F)cc45)C3)C2)c(F)c1 (stereo not shown) [Compound 63] | 1.01 µM | – | 44.3 nM | 1.13 µM | – | – | –
25 | Cc1nc(N2CC3(CCC(NCc4ccc5[nH]c(=O)[nH]c5c4)C3)C2)c2cc(CC(F)(F)F)sc2n1 (stereo not shown) [Compound 119] | 2.15 µM | – | 47.9 nM | 2.28 µM | – | – | –
26 | CNc1nc(N2CC3(CCC(NCc4ccc5[nH]c(=O)[nH]c5c4)C3)C2)c2cc(CC(F)(F)F)sc2n1 (stereo not shown) [Compound 120] | 2.13 µM | – | 52.4 nM | 2.9 µM | – | – | –
27 | N#CCc1ccc(NC2CCC3(CCN(c4ncnc5sc(CC(F)(F)F)cc45)C3)C2)cc1 (stereo not shown) [Compound 143] | 1.94 µM | – | 32.2 nM | 1.68 µM | – | – | –
28 | O=c1[nH]c2cc(NC3CCC4(C3)CN(c3ncnc5sc(CC(F)(F)F)cc35)C4)ccc2o1 (stereo not shown) [Compound 285] | 2.65 µM | – | 16.2 nM | > 3.75 µM | – | – | –
29 | FC(F)(F)Cc1cc2c(N3CC4(CCC(Nc5ccc6cc(C(F)(F)F)[nH]c6c5)C4)C3)ncnc2s1 (stereo not shown) [Compound 288] | > 3.75 µM | – | 135 nM | > 3.75 µM | – | – | –
30 | FC(F)(F)Cc1cc2c(N3CC4(CC(NCc5ccccc5)C4)C3)ncnc2s1 [Compound 428] | 0.55 µM | 23.8 nM | – | 1.84 µM | – | – | –
